Experimental findings from US20230190760A1, “ADVANTAGEOUS THERAPIES FOR DISORDERS MEDIATED BY IKAROS OR AIOLOS” (C4 Therapeutics, Inc., priority 2020, published 2023) are described below.

Series [1] concerns hematological cancer cell lines. Description: Anti-proliferative activity in hematological cancer cell lines (whole panel). The class given is cell-based. To be noted: in multiple cell lines, 96 hours.
Series [2] relates to SU-DHL-1. Description: Anti-proliferative activity, 96 hours. The settings on record: Homo sapiens, SU-DHL-1, 96 h.
Series [3] deals with Pfeiffer. The series can be described thus: Anti-proliferative activity, 96 hours. The settings on record: Homo sapiens.
In series [4] the test system is Caspase 3/7 activity in TMD8 cells. Description: Apoptosis induction, Caspase 3/7 activity in TMD8 cells.
Method: 30 μL TMD8 cells were seeded into the 384-well plates in RPMI medium containing 10% FBS at a cell density of 2000 cells per well. Cells treated in the absence of the test compound were the negative control. Following compound treatment, cells were incubated at 37° C. with 5% CO2 for 48 hr. 30 μL reconstituted Caspase 3/7 Assay detection reagent was added to each well and luminescence was acquired on EnVision™ Multilabel Reader (PerkinElmer, Santa Clara, Calif., USA).
Series [5] relates to mantel cell lymphoma (MCL) cell lines. The series can be described thus: Anti-cancer activity in MCL cell lines. The settings on record: four of six lines tested were responsive; read-out: mean IC50 among the responsive lines. The class given is cell-based.
The subject of series [6] is KARPASS422. Description: Anti-proliferative activity, 96 hours.
The subject of series [7] is TMD8 DLBCL tumors. The series can be described thus: TMD8 DLBCL xenograft, NOD SCID mice. The class given is in vivo. How it is done: A xenograft study was also conducted in female NOD SCID mice bearing TMD8 DLBCL tumors.
Statistical analysis was performed using two-way analysis of variance (ANOVA). Data are expressed as MTV±SEM.

In series [8] the test system is RPMI 8226. The series can be described thus: Anti-proliferative activity, 96 hours. The settings on record: Homo sapiens, RPMI-8226, 96 h.
In series [9] the test system is IKZF1/3. The series can be described thus: Ex vivo IKZF1/3 degradation in PBMC, cynomolgus monkey. The class given is cell-based. To be noted: cynomolgus monkey cells. On the procedure: IKZF1/3 are not degraded in mouse cells treated with thalidomide or its IMiD® analogs because of a single amino acid difference in mouse cereblon compared to human cereblon that causes steric hindrance and prevents recruitment of IKZF1/3. Ex vivo studies were performed in peripheral blood cells (PBMC) of mice, rats, dogs, and monkeys to identify relevant species for IND enabling-toxicity studies based on the degree of IKZF1 degradation by Compound 1. IKZF1 was not degraded in mouse or rat cells by Compound 1, thus, while rat could not be considered a pharmacologically relevant species for human risk assessment, it was chosen as the rodent species for toxicological studies because it is widely used in toxicity testing and a substantial historical toxicology database is available. […] Therefore, cynomolgus monkey was chosen for non-rodent toxicological studies.

Series [10] deals with KI-JK ALCL tumors. Description: KI-JK ALCL xenograft efficacy (Example 20). The class given is in vivo, mice. To be noted: 100 μg/kg PO daily for 21 days. On the procedure: A xenograft study was conducted in female NOD SCID mice bearing KI-JK ALCL tumors.
Data are expressed as MTV±SEM.

Series [11] relates to IKZF1 and IRF-4. Description: KI-JK ALCL tumor pharmacodynamic study, western blot (Example 17). The class given is in vivo, mice. To be noted: single dose, 6-hour and 24-hour timepoint. How it is done:
A pharmacodynamic study was also conducted in female NOD SCID mice bearing KI-JK ALCL tumors. […] Once tumors reached a volume of 450 mm^3 they were stratified into 3 treatment groups, consisting of 4 mice each.
Mice were sacrificed and tumors harvested at 6 and 24 hours post single dose. Tumors were mechanically homogenized, and protein extracted using RIPA buffer (Sigma Aldrich). Protein concentration was quantified using a Pierce™ BCA Protein Assay Kit, samples were reduced, and equal protein amounts were then loaded onto a western blot gel for analysis. Samples were analyzed for IKZF1 (Invitrogen, PA5-23728) and IRF-4 (CST, 15106) expression. Data is expressed as percentage of IKZF1 or IRF-4 in comparison to the vehicle control and normalized to GAPDH levels to control for protein loading. Error bars represent ±SEM values.
(In general: Immunoblotting shows a protein as a band on a membrane.)

Series [12] has as its system anaplastic large cell lymphoma (ALCL) cell lines. The series can be described thus: Anti-cancer activity in ALCL cell lines. The class given is cell-based. To be noted: four out of six cell lines were responsive; read-out: mean IC50 among the responsive lines.
Series [13] has as its system DOHH-2. Description: Anti-proliferative activity, 96 hours. The settings on record: Homo sapiens, DOHH-2, 96 h.
The subject of series [14] is SU-DHL-5. Description: Anti-proliferative activity, 96 hours. To be noted: Homo sapiens, SU-DHL-5, 96 h.
Series [15] relates to 87 potential unintended molecular targets. The series can be described thus: In vitro binding or activity against 87 potential unintended molecular targets. To be noted: 100 nM, 500× the free plasma exposure (Cmax) of maximum in vivo efficacy.
Series [16] concerns WSU-DLCL2. Description: Anti-proliferative activity, 96 hours. The settings on record: Homo sapiens, WSUDLCL2, 96 h.
Series [17] deals with MM.1R. Description: Anti-proliferative activity, 96 hours.
In series [18] the test system is IKZF1, IKZF3, IRF-1, IRF-4 and Caspase-3. The series can be described thus: KI-JK ALCL tumor protein expression, western blot (Example 20). The class given is in vivo, mice. The settings on record: 100 μg/kg PO. How it is done:
A second xenograft study was conducted in female NOD SCID mice bearing KI-JK ALCL tumors. […] Once tumors reached a mean tumor volume (MTV) of 450 mm^3 they were stratified into two groups.
For the vehicle control group, 2 mice were sacrificed, and tumors harvested 24 hours post a single dose. Mice in the Compound 1 group were sampled at 4- and 24-hours post dose a single dose, with two tumors collected per time point. Additional mice were dosed daily for 5 or 7 days with tumor collections 24 hours post last dose, with 2 mice sampled per time point. Tumors were then mechanically homogenized, and protein extracted using RIPA buffer (Sigma Aldrich). Protein concentration was quantified using a Pierce™ BCA Protein Assay Kit, samples were reduced, and equal protein amounts were then loaded onto a western blot gel for analysis. Tumors were analyzed for IKZF1 (Invitrogen, PA5-23728), IKZF3 (CST, 15103), IRF-1 (CST, 8478), IFR-4 (CST, 15106), and Caspase-3 (CST, 9662) expression. […] Data is expressed as percentage of each target in comparison to the target level measured in the vehicle control and normalized to GAPDH levels to control for protein loading. Error bars represent ±SEM values.

Series [19] deals with TMD8. Description: Anti-proliferative activity, 96 hours. To be noted: Homo sapiens, TMD8, 96 h.

As for `O=C1CC[C@H](N2C(=O)c3cccc4c(Cc5ccc(CN6CCOCC6)cc5)ccc2c34)C(=O)N1` (single isomer, unassigned) [Compound 1], the “more active than pomalidomide” value in series [1] is given as “more than 5,000 fold”. Also, the IC50 (as a rule, the concentration at which inhibition is half-maximal) was determined as 0.415 nM in [2]; 1.08 nM in [3]; 13 nM in series [5]; 0.189 nM in series [6]; 0.698 nM in series [8]; 1.7 nM in series [12]. The IC50 in series [13] worked out at 2.73 nM; in series [14], 6.37 nM; in [16] it was 2.8 nM; in series [17] it was 0.083 nM; in series [19], 0.078 nM. Also, the “Maximum caspase 3/7 activity” value in series [4] (48 hr) is greater than 8 fold. Besides, the “activity level of caspase-3 and caspase-7 increased” value in series [4] (FIG. 51) is “more than 800%”. Also, the EC50 in [4] (Homo sapiens, TMD8, 48 h, read-out: EC50, caspase 3/7 activity) is 2.7 nM. The “Statistical Significance Compared to Vehicle” value in [7] (100 μg/kg PO daily) is less than 0.0001. The tumor volume entry in [7] (Compound 1 100 μg/kg, pomalidomide 3000 μg/kg, 18 days) was “decreased”; in series [10], “reduced tumor volume”. In addition, the “degrading IKZF1/3” value in series [9] is listed as “highly effective”. The “percentage of IKZF1 and IRF-4 compared to pomalidomide” value in [11] is given as “smaller”. For the same compound, the off-target inhibition result in series [15] is recorded as “no targets inhibited >50%”. Moreover, in series [18], the “concentration of caspase-3 and IRF-1” value is recorded as “increased”. For the same compound, the “percentage of IKZF1, IKZF3, and IRF-4” value in [18] is “decreased”.
